Data from US8952024B2, “Herbicidal pyrimidone derivatives” (E I du Pont de Nemours and Company, priority 2009, dated 2015).

What was measured:
Format in all cases: in vivo
[1] = system: barnyardgrass (Echinochloa crus-galli); assay: Test A pre-/postemergence plant response
Excerpt: (§1) Seeds of barnyardgrass (Echinochloa crus-galli), large crabgrass (Digitaria sanguinalis), giant foxtail (Setaria faberii), morningglory (Ipomoea spp.), pigweed (Amaranthus retroflexus), velvetleaf (Abutilon theophrasti), wheat (Triticum aestivum) and corn (Zea mays) were planted into a blend of loam soil and sand and treated preemergence with a directed soil spray using test chemicals formulated in a non-phytotoxic solvent mixture which included a surfactant. At the same time these species were also treated with postemergence applications of test compounds formulated in the same manner.
(§2) Plants ranged in height from two to ten cm and were in the one- to two-leaf stage for the postemergence treatment. Treated plants and untreated controls were maintained in a greenhouse for approximately ten days, after which time all treated plants were compared to untreated controls and visually evaluated for injury. Plant response ratings, summarized in Table A, are based on a 0 to 100 scale where 0 is no effect and 100 is complete control. A dash (-) response means no test result.

corn (Zea mays) = assay: Test A pre-/postemergence plant response
Excerpt: as §1, §2

[2] = system: giant foxtail (Setaria faberii); assay: Test A pre-/postemergence plant response
Excerpt: as §1, §2

[3] = system: large crabgrass (Digitaria sanguinalis); assay: Test A pre-/postemergence plant response
Excerpt: as §1, §2

[4] = system: morningglory (Ipomoea spp.); assay: Test A pre-/postemergence plant response
Excerpt: as §1, §2

[5] = system: pigweed (Amaranthus retroflexus); assay: Test A pre-/postemergence plant response
Excerpt: as §1, §2

[6] = system: velvetleaf (Abutilon theophrasti); assay: Test A pre-/postemergence plant response
Excerpt: as §1, §2

[7] = system: wheat (Triticum aestivum); assay: Test A pre-/postemergence plant response
Excerpt: as §1, §2

[8] = system: barnyardgrass (Echinochloa crus-galli); assay: Test B flooded paddy test; conditions: for Plant response rating, Flood, Barnyardgrass: 250 g ai/ha, flooded paddy test, visual rating on 0 to 100 scale (0 no effect, 100 complete control) after 13 to 15 days; for Plant response rating, Barnyardgrass: Flood (flooded paddy test), 13 to 15 days; for Barnyardgrass plant response rating: Flood, 31 g ai/ha, scale 0 to 100 (0 no effect, 100 complete control)
In short: (§3)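 Flooded-pot test: water raised to 3 cm above soil when treating, compound put in the water, level unchanged thereafter. Plants were at 2 leaves. Readout after 13 to 15 days, visual, relative to controls; 0 signifies no effect and 100 complete control.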

[9] = system: ducksalad (Heteranthera limosa); assay: Test B flooded paddy test; conditions: for Plant response rating, Flood, Ducksalad: 250 g ai/ha, flooded paddy test, visual rating on 0 to 100 scale (0 no effect, 100 complete control) after 13 to 15 days; for Plant response rating, Ducksalad: Flood (flooded paddy test), 13 to 15 days; for Ducksalad plant response rating: Flood, 31 g ai/ha, scale 0 to 100 (0 no effect, 100 complete control)
In short: as §3

rice (Oryza sativa) = assay: Test B flooded paddy test; conditions: for Plant response rating, Flood, Rice: 250 g ai/ha, flooded paddy test, visual rating on 0 to 100 scale (0 no effect, 100 complete control) after 13 to 15 days; for Plant response rating, Rice: Flood (flooded paddy test), 13 to 15 days; for Rice plant response rating: Flood, 31 g ai/ha, scale 0 to 100 (0 no effect, 100 complete control)
In short: as §3

[10] = system: umbrella sedge (Cyperus difformis); assay: Test B flooded paddy test; conditions: for Plant response rating, Flood, Sedge, Umbrella: 250 g ai/ha, flooded paddy test, visual rating on 0 to 100 scale (0 no effect, 100 complete control) after 13 to 15 days; for Plant response rating, Sedge, Umbrella: Flood (flooded paddy test), 13 to 15 days; for Sedge, Umbrella plant response rating: Flood, 31 g ai/ha, scale 0 to 100 (0 no effect, 100 complete control)
In short: as §3

[11] = Postemergence, 125 g ai/ha, 0 to 100 scale where 0 is no effect and 100 is complete control
[12] = Postemergence, 500 g ai/ha, 0 to 100 scale, 0 = no effect, 100 = complete control, approx. ten days
[13] = Preemergence, 125 g ai/ha, 0 to 100 scale, 0 = no effect, 100 = complete control
[14] = Preemergence, 500 g ai/ha, visual injury, 0 to 100 scale (0 no effect, 100 complete control), approx. ten days
[15] = 62 g ai/ha, scale of 0 to 100 where 0 is no effect and 100 is complete control
[16] = 125 g ai/ha, scale 0 to 100, 0 is no effect, 100 is complete control

CCCCn1c(-c2cccc(F)c2)ncc(C(=O)C2=C(O)CCCC2=O)c1=O [Compound 125]
70: Plant response rating, Barnyardgrass [1, 11] | Plant response rating, Foxtail, Giant [2, 11] | Plant response rating, Crabgrass, Large [3, 11] | Plant response rating, Flood, Ducksalad [9]
0: Plant response rating, Corn (corn (Zea mays); [11]) | Plant response rating, Corn (corn (Zea mays); [13]) | Plant response rating, Corn (corn (Zea mays); [14]) | Plant response rating, Morningglory [4, 13] | Plant response rating, Morningglory [4, 14] | Plant response rating, Wheat [7, 11] | Plant response rating, Wheat [7, 13] | Plant response rating, Wheat [7, 14] | Barnyardgrass plant response rating [8] | Plant response rating, Flood, Rice (rice (Oryza sativa)) | Plant response rating, Rice (rice (Oryza sativa); [15]) | Plant response rating, Rice (rice (Oryza sativa); [16]) | Rice plant response rating (rice (Oryza sativa))
35: Plant response rating, Sedge, Umbrella [10, 15]
25: Plant response rating, Barnyardgrass [8, 15] | Sedge, Umbrella plant response rating [10]
20: Plant response rating, Corn (corn (Zea mays); [12]) | Ducksalad plant response rating [9]
90: Plant response rating, Barnyardgrass [1, 12] | Plant response rating, Barnyardgrass [1, 14] | Plant response rating, Foxtail, Giant [2, 12] | Plant response rating, Crabgrass, Large [3, 12] | Plant response rating, Pigweed [5, 11] | Plant response rating, Pigweed [5, 13] | Plant response rating, Pigweed [5, 14] | Plant response rating, Flood, Sedge, Umbrella [10] | Plant response rating, Sedge, Umbrella [10, 16]
60: Plant response rating, Velvetleaf [6, 13] | Plant response rating, Flood, Barnyardgrass [8] | Plant response rating, Ducksalad [9, 16]
100: Plant response rating, Crabgrass, Large [3, 14] | Plant response rating, Pigweed [5, 12] | Plant response rating, Velvetleaf [6, 11] | Plant response rating, Velvetleaf [6, 12] | Plant response rating, Velvetleaf [6, 14]
80: Plant response rating, Foxtail, Giant [2, 14] | Plant response rating, Crabgrass, Large [3, 13] | Plant response rating, Morningglory [4, 11] | Plant response rating, Morningglory [4, 12]
40: Plant response rating, Foxtail, Giant [2, 13] | Plant response rating, Barnyardgrass [8, 16] | Plant response rating, Ducksalad [9, 15]
10: Plant response rating, Barnyardgrass [1, 13] | Plant response rating, Wheat [7, 12]

Cc1cc(-n2c(-c3cccc(Cl)c3)ncc(C(=O)C3=C(O)CCCC3=O)c2=O)ccc1F [Compound 133]
40: Plant response rating, Corn (corn (Zea mays); [12]) | Plant response rating, Foxtail, Giant [2, 13] | Plant response rating, Crabgrass, Large [3, 11] | Plant response rating, Morningglory [4, 11] | Plant response rating, Pigweed [5, 13] | Plant response rating, Wheat [7, 12]
10: Plant response rating, Barnyardgrass [1, 13] | Plant response rating, Corn (corn (Zea mays); [11])
60: Plant response rating, Ducksalad [9, 15] | Ducksalad plant response rating [9] | Plant response rating, Sedge, Umbrella [10, 15]
50: Plant response rating, Crabgrass, Large [3, 13] | Plant response rating, Velvetleaf [6, 13]
80: Plant response rating, Foxtail, Giant [2, 14] | Plant response rating, Pigweed [5, 11]
95: Plant response rating, Sedge, Umbrella [10, 16]
0: Plant response rating, Corn (corn (Zea mays); [13]) | Plant response rating, Morningglory [4, 13] | Plant response rating, Morningglory [4, 14] | Plant response rating, Wheat [7, 13] | Plant response rating, Flood, Barnyardgrass [8] | Plant response rating, Barnyardgrass [8, 15] | Plant response rating, Barnyardgrass [8, 16] | Barnyardgrass plant response rating [8] | Plant response rating, Flood, Rice (rice (Oryza sativa)) | Plant response rating, Rice (rice (Oryza sativa); [15]) | Plant response rating, Rice (rice (Oryza sativa); [16]) | Rice plant response rating (rice (Oryza sativa)) | Sedge, Umbrella plant response rating [10]
90: Plant response rating, Barnyardgrass [1, 12] | Plant response rating, Foxtail, Giant [2, 12]
100: Plant response rating, Barnyardgrass [1, 14] | Plant response rating, Crabgrass, Large [3, 12] | Plant response rating, Crabgrass, Large [3, 14] | Plant response rating, Pigweed [5, 12] | Plant response rating, Pigweed [5, 14] | Plant response rating, Velvetleaf [6, 11] | Plant response rating, Velvetleaf [6, 12] | Plant response rating, Velvetleaf [6, 14] | Plant response rating, Flood, Ducksalad [9] | Plant response rating, Ducksalad [9, 16] | Plant response rating, Flood, Sedge, Umbrella [10]
20: Plant response rating, Barnyardgrass [1, 11] | Plant response rating, Corn (corn (Zea mays); [14]) | Plant response rating, Foxtail, Giant [2, 11] | Plant response rating, Wheat [7, 11] | Plant response rating, Wheat [7, 14]
70: Plant response rating, Morningglory [4, 12]
